The subject of assay [1] is PNE mice. Briefly: Y-maze spontaneous alternation assay in prenatal nicotine exposure (PNE) mice. The format is in vivo, mice (C57/B6). As to conditions: for changes in spontaneous alternations in PNE mice (Y-maze): PNE mice only, FIG. 6, N=8-9; for spontaneous alternations in the PNE mice, comparison of methylphenidate and PD 168077: FIG. 10, n=9-10 per group. As to the method:
(§1) A prenatal nicotine exposure (PNE) mouse model to screen for drugs that alleviate the symptoms of ADHD and associated working memory deficits is developed.^13,14 In this model, adult female C57/B6 mice are exposed to nicotine (100 μg/ml nicotine and 2% saccharin in drinking water, pH 7.2) starting 4-6 weeks prior to mating with drug-naïve male mice, and throughout their pregnancies. Two groups of age- and bodyweight-matched female mice are used as controls. In the saccharin-only (SAC) control group, mice were exposed to saccharin alone (2% saccharin in drinking water, pH 7.2), and mice in the plain drinking water (WATER) control group were exposed to drinking water without any additives. On the day the mice littered, the litter size was standardized to contain 6-8 offspring (4 males and 4 females, whenever possible). Within 48 hours of birth offspring from the PNE, SAC and WATER groups were removed from their biological mothers and cross fostered to drug-naïve nursing dams. At the age of 90 days (postnatal day 90; P90), male offspring from each group were used in experimental analyses.
(§2) On postnatal day 90 (P90), a Y-maze assay is used to examine changes in spontaneous alternation in the PNE mouse model.
In additional experiments, saline, selective D1 receptor agonist (A-77636), selective D2/D3 receptor agonist (LY 171555), and selective D4 receptor agonist (PD 168077) are administered to the PNE and SAC mice followed with the assay of spontaneous alternations using the Y-maze.
Methylphenidate, the classic stimulant treatment for ADHD, is examined for its efficacy in alleviating working memory deficits in the PNE mice. It is disclosed that methylphenidate increases extracellular dopamine in the frontal cortex of mice.^1,14 In the example of the present invention, saline or a therapeutic equivalent dose of methylphenidate^18 is administered to PNE and SAC mice. The PNE and SAC mice administered saline or a therapeutic equivalent dose of methylphenidate are assayed for spontaneous alternations in the Y-maze.

For assay [2], the system named is SAC mice. Briefly: Y-maze spontaneous alternation assay in saccharin-only (SAC) control mice. The format is in vivo, mice (C57/B6). As to the method: as §1
On postnatal day 90 (P90), a Y-maze assay is used to examine changes in spontaneous alternation in the PNE mouse model. […]

Assay [3] relates to drug naïve mice. Nature of the assay: Y-maze spontaneous alternation in drug naïve (WATER group) mice with pharmacological blockade of the D4 receptor. In kind it is in vivo, mice (C57/B6). Particulars: drug naïve mice given D4 antagonist L 745087, Panel B of FIG. 7. As to the method: as §1, §2
The subject of assay [4] is dopamine D2/D3 receptors. Briefly: GTPγS binding assay, D2/D3 receptor activity in frontal cortical membrane preparations after methylphenidate treatment. The format is biochemical. Particulars: PNE or SAC mice after methylphenidate treatment, FIG. 9. Background: Binding of GTPγS marks nucleotide exchange on a G protein.
Description: D2/D3 and D4 receptor activities are also analyzed using GTPγS binding assays with frontal cortical membrane preparations from PNE and SAC mice following the methylphenidate treatment. […] Mean±SEM, n=10-11 per group.
Assay [5] relates to dopamine D4 receptor. Briefly: GTPγS binding assay, D4 receptor activity in frontal cortical membrane preparations after methylphenidate treatment. Particulars: FIG. 9. The format is biochemical, mice. As to the method:
Following the Y maze assay, GTPγS receptor binding assay is performed to examine the dopamine receptor signaling in mice of different groups and therefore to determine which dopamine subtypes are activated. GTPγS binding assay is used to measure agonist-induced dopamine receptor-G-protein coupling in membrane preparations obtained from specific brain regions such as the frontal cortex.^17 This assay uses pharmacological compounds that selectively activate each receptor subtype. Since compounds selective for each of the 5 dopamine receptor subtypes are not available yet, testing is limited to assaying activities of the D2/D3 and D4 receptor only. In this assay, a D2 receptor agonist LY 171555 and a selective D4R agonist PD 168077, both in 30 μM, are used to exam the activities of D2/D3 receptor and D4 receptor, respectively.
D2/D3 and D4 receptor activities are also analyzed using GTPγS binding assays with frontal cortical membrane preparations from PNE and SAC mice following the methylphenidate treatment. Increases are found in D4 agonist-induced G-protein coupling in the frontal cortices of PNE mice following the methylphenidate treatment, compared to saline treatment (Panel A, FIG. 9). […]

On to `NC[C@@H]1O[C@H](C23CC4CC(CC(C4)C2)C3)Cc2c1ccc(O)c2O` [A-77636], for which the “changes in spontaneous alternations in PNE mice (Y-maze)” value in assay [1] is “neither the D1 nor the D2/D3 agonist produces significant changes”.
On to `CCCN1CCC[C@@H]2Cc3n[nH]cc3C[C@H]21` [LY 171555], for which the “changes in spontaneous alternations in PNE mice (Y-maze)” value in assay [1] is “neither the D1 nor the D2/D3 agonist produces significant changes”.
`Cc1cccc(C(=O)NCN2CCN(c3ccccc3C#N)CC2)c1` [PD 168077, N-([4-(2-cyanophenyl)piperazin-1-yl]methyl)-3-methylbenzamide]: the “change in spontaneous alternations in the SAC group (Y-maze)” value in assay [2] (20 mg/kg, FIG. 5) is on record as “the change is not significant”. In addition, the “spontaneous alternations in the PNE mice, comparison of methylphenidate and PD 168077” value in assay [1] was “greater than that of MPH”. For the same molecule, the “working memory in prenatal nicotine exposure mouse models” value in assay [1] (PD 168077 about 10 mg per kilogram body weight) was “shows improvement in working memory”; in assay [1] (PD 168077 about 20 mg per kilogram body weight), “shows greater improvement in working memory”. Moreover, the “difference in spontaneous alternations between the PNE group and the SAC group after administration” value in assay [1] (after PD 168077 administration, FIG. 5) is on record as “no statistically significant difference”. For the same molecule, in assay [1] (dose from about 10 mg/kg to about 20 mg/kg, FIG. 5), the “spontaneous alternations in the PNE mice (Y-maze)” value is “produces improvement in spontaneous alternations in the PNE mice in a dose dependent manner”. Besides, the “effect on L 745087 antagonist-induced decrease in spontaneous alternations” value in assay [3] is “abolishes the antagonist-induced decreases in spontaneous alternations in a dose-dependent manner”.
In the case of `COC(=O)C(c1ccccc1)C1CCCCN1` (stereo not shown) [methylphenidate], the “spontaneous alternations in the SAC control group (Y-maze)” value in assay [2] (single oral 0.75 mg/kg, FIG. 8) is “no significant effect”. For the same molecule, in assay [4], the “D2/D3 receptor coupling to G-protein in the frontal cortices” value was “does not produce significant alterations”. Moreover, the “spontaneous alternations in the PNE mice, comparison of methylphenidate and PD 168077” value in assay [1] is “increase spontaneous alternations”. Further, in assay [1] (single oral 0.75 mg/kg about 30 minutes before the Y maze assay, saline about 48.0±2.2, FIG. 8), the “spontaneous alternation in PNE mice (Y-maze), Mean±SEM” value is reported as “about 57.1±1.8”. The “difference in spontaneous alternations between methylphenidate-exposed PNE mice and saline-exposed SAC control mice” value in assay [1] (single oral 0.75 mg/kg, FIG. 8) is on record as “no longer a significant difference”. The “activity of D4 receptor in the prefrontal cortex (D4 agonist-induced G-protein coupling), Mean±SEM” value in assay [5] (MPH treated PNE mice, saline treated about 92.0±3.5) is reported as “about 131.6±11.6”. Moreover, the “D4 receptor activity in the SAC group” value in assay [5] (SAC mice receiving methylphenidate treatment) is listed as “no significant change”.

Source of the values: patent US10272080B2, “Selective dopamine D4 receptor agonists for treatment of working memory deficits” (priority 2013, dated 2019).
